Values quoted from earlier work, collected in US20050032782A1, “Treatment of chronic pain associated with drug or radiation therapy” (Cypress Bioscience, Inc., priority 2003, published 2005).

Molecular target: NMDA receptor
Conditions: reported by Shuto et al.; read-out: IC50 value, NMDA receptor antagonistic properties

SMILES: CCN(CC)C(=O)C1(c2ccccc2)CC1CN (stereo not shown) [milnacipran]
- IC50: ~6.3 µM
